Experimental data reported in the NIST ThermoML archive (doi:10.1016/j.tca.2013.03.017).
Numbers after ± are expanded uncertainties.

Legend:
[1] = 101 kPa, Liquid, Hot wire method
[2] = molar heat capacity at constant pressure; conditions: 101 kPa, Liquid, Small sample (50 mg) DSC
[3] = xn = mol fraction of the nth substance listed; conditions: 101 kPa, Liquid, Hot wire method, x2 = 0
[4] = molar heat capacity at constant pressure; xn = mol fraction of the nth substance listed; conditions: 101 kPa, Liquid, Small sample (50 mg) DSC, x2 = 0

Compound	thermal conductivity ([1]; 303.15 K) [W/m/K]	thermal conductivity ([1]; 313.15 K) [W/m/K]	thermal conductivity ([1]; 323.15 K) [W/m/K]	thermal conductivity ([1]; 333.15 K) [W/m/K]	thermal conductivity ([1]; 343.15 K) [W/m/K]	thermal conductivity ([1]; 353.15 K) [W/m/K]	molar heat capacity at constant pressure ([2]; 303.15 K) [J/K/mol]	molar heat capacity at constant pressure ([2]; 313.15 K) [J/K/mol]	molar heat capacity at constant pressure ([2]; 323.15 K) [J/K/mol]	molar heat capacity at constant pressure ([2]; 333.15 K) [J/K/mol]	molar heat capacity at constant pressure ([2]; 343.15 K) [J/K/mol]	molar heat capacity at constant pressure ([2]; 353.15 K) [J/K/mol]	other results
O=S1(=O)CCCC1 [sulfolane]	0.1678 ± 0.0008	0.1656 ± 0.0012	0.1634 ± 0.0011	0.1616 ± 0.0011	0.1593 ± 0.0011	0.1581 ± 0.0009	181.5 ± 2.8	185.1 ± 2.9	188.7 ± 2.9	192.3 ± 3	194.3 ± 3	197.8 ± 3.1	–
O [water]	0.6137 ± 0.0027	0.6307 ± 0.0039	0.6437 ± 0.0039	0.6548 ± 0.004	0.6632 ± 0.004	0.67 ± 0.0037	75.3 ± 1.2	75.26 ± 1.2	75.3 ± 1.2	75.39 ± 1.2	75.48 ± 1.2	75.6 ± 1.2	–
O [water] + O=S1(=O)CCCC1	–	–	–	–	–	–	–	–	–	–	–	–	thermal conductivity ([3]; 303.15 K): 0.6137 ± 0.0027 W/m/K; thermal conductivity ([3]; 313.15 K): 0.6307 ± 0.0039 W/m/K; thermal conductivity ([3]; 323.15 K): 0.6437 ± 0.0039 W/m/K; thermal conductivity ([3]; 333.15 K): 0.6548 ± 0.004 W/m/K; thermal conductivity ([3]; 343.15 K): 0.6632 ± 0.004 W/m/K; thermal conductivity ([3]; 353.15 K): 0.67 ± 0.0037 W/m/K; molar heat capacity at constant pressure ([4]; 303.15 K): 75.3 ± 1.2 J/K/mol; molar heat capacity at constant pressure ([4]; 313.15 K): 75.26 ± 1.2 J/K/mol; molar heat capacity at constant pressure ([4]; 323.15 K): 75.3 ± 1.2 J/K/mol; molar heat capacity at constant pressure ([4]; 333.15 K): 75.39 ± 1.2 J/K/mol; molar heat capacity at constant pressure ([4]; 343.15 K): 75.48 ± 1.2 J/K/mol; molar heat capacity at constant pressure ([4]; 353.15 K): 75.6 ± 1.2 J/K/mol
